How the values were obtained:
[1] = system: HuCCT1 (Biliary Tract Carcinoma); assay: Bliss excess, mean over the matrix (fraction); higher = more synergy
Summary of the method: (§1)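 After 24 hours at 37°C and 5% CO2 in 1536-well plates, cells in DMEM/F12 or RPMI plus 10% FBS received two-drug dose matrices for 72 hours. Viability came from CellTiter-Glo 2.0 luminescence and was scaled as inhibition, anchored at 0 by vehicle wells and at 1 by blank wells. Combination Emax is taken as the second-highest inhibition in the matrix, and Bliss excess as the observed combination effect less EA + EB − EA·EB, with EA and EB the single-agent effects.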

[2] = system: NCI-H524 (Small Cell Lung Carcinoma); assay: as above
Summary of the method: as §1

[3] = system: SAS (Oral Cavity Carcinoma); assay: as above
Summary of the method: as §1

A673 (Ewing's Sarcoma) = assay: combination Emax (second highest fraction inhibited in the dose matrix, 72 h); higher = more inhibition; extreme values may be limits of the assay
Summary of the method: as §1

[4] = system: BE-13 (T-Lymphoblastic Leukemia); assay: as above
Summary of the method: as §1

[5] = system: HuCCT1 (Biliary Tract Carcinoma); assay: as above
Summary of the method: as §1

[6] = system: KYAE-1 (Esophageal Adenocarcinoma); assay: as above
Summary of the method: as §1

LOXIMVI (Melanoma) = assay: as above
Summary of the method: as §1

[7] = system: LS-123 (Colorectal Carcinoma); assay: as above
Summary of the method: as §1

[8] = system: OVCAR-5 (Ovarian Carcinoma); assay: as above
Summary of the method: as §1

[9] = system: BFTC-909 (Kidney Carcinoma); assay: Bliss excess, mean over the matrix (fraction); higher = more synergy
Summary of the method: as §1
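Throughout, for Bliss excess, mean over the matrix: after 72 h of two-drug dosing.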

| Compound | Bliss excess [1] | Bliss excess [2] | Bliss excess [3] | combination Emax (A673 (Ewing's Sarcoma)) | combination Emax [4] | combination Emax [5] | combination Emax [6] | combination Emax (LOXIMVI (Melanoma)) | combination Emax [7] | combination Emax [8] | Bliss excess [9] |
| --- | --- | --- | --- | --- | --- | --- | --- | --- | --- | --- | --- |
| CC1(C)CCC(CN2CCN(c3ccc(C(=O)NS(=O)(=O)c4ccc(NCC5CCOCC5)c([N+](=O)[O-])c4)c(Oc4cnc5[nH]ccc5c4)c3)CC2)=C(c2ccc(Cl)cc2)C1 [Venetoclax] + CS(=O)(=O)CCNCc1ccc(-c2ccc3ncnc(Nc4ccc(OCc5cccc(F)c5)c(Cl)c4)c3c2)o1 [Lapatinib] (first compound max 1 µM, 7x7, partner max 10 µM) | -0.0803 | -0.0393 | -0.059 | 0.207 | 0.854 | 0.397 | 0.758 | 0.426 | 0.267 | 0.308 |  |
| CS(=O)(=O)CCNCc1ccc(-c2ccc3ncnc(Nc4ccc(OCc5cccc(F)c5)c(Cl)c4)c3c2)o1 [Lapatinib] + NC1(c2ccc(-c3nc4ccn5c(=O)[nH]nc5c4cc3-c3ccccc3)cc2)CCC1 [MK-2206] (first compound max 10 µM, 7x7, partner max 10 µM) | -0.018 | 0.0223 | 0.0044 | 0.363 | 0.971 | 0.893 | 0.892 | 0.967 | 0.629 | 0.787 | -0.0279 |
| C[C@@H]1COCCN1c1cc(C2([S@](C)(=N)=O)CC2)nc(-c2ccnc3[nH]ccc23)n1 [AZD6738] + Nc1ccn([C@@H]2O[C@H](CO)[C@@H](O)C2(F)F)c(=O)n1 [Gemcitabine] (first compound max 10 µM, 7x7, partner max 0.3 µM) | 0.0144 | 0.0064 | 0.0762 |  | 1 | 0.779 | 0.0714 | 0.92 | 0.705 | 0.743 |  |
| Cc1nc(-c2cn3c(n2)-c2ccc(-c4cnn(C(C)(C)C(N)=O)c4)cc2OCC3)n(C(C)C)n1 [Taselisib] + O=C(Nc1ccc2[nH]nc(-c3ccncc3)c2c1)[C@@H]1CCN(CC(=O)N2CCN(c3ccc(-c4ncccn4)cc3)CC2)C1 [SCH772984] (first compound max 10 µM, 7x7, partner max 5 µM) | 0.072 | 0.0464 | 0.0999 | 0.705 | 0.373 | 0.839 | 0.408 | 1 | 0.889 | 0.846 |  |
| C=CCn1c(=O)c2cnc(Nc3ccc(N4CCN(C)CC4)cc3)nc2n1-c1cccc(C(C)(C)O)n1 [AZD1775] + CCc1c2c(nc3ccc(O)cc13)-c1cc3c(c(=O)n1C2)COC(=O)[C@]3(O)CC [SN-38] (first compound max 1 µM, partner max 0.3 µM) | -0.0281 | -0.0355 | 0.0334 | 0.973 | 1 | 0.809 | 0.267 | 0.863 | 0.828 | 0.77 |  |
| O=C(c1cc(Cc2n[nH]c(=O)c3ccccc23)ccc1F)N1CCN(C(=O)C2CC2)CC1 [Olaparib] + CC1(C)CCC(CN2CCN(c3ccc(C(=O)NS(=O)(=O)c4ccc(NCC5CCOCC5)c([N+](=O)[O-])c4)c(Oc4cnc5[nH]ccc5c4)c3)CC2)=C(c2ccc(Cl)cc2)C1 [Venetoclax] (first compound max 10 µM, 7x7, partner max 1 µM) | -0.0478 | -0.0173 | -0.0168 | 0.501 | 0.315 | 0.0844 | 0.154 | 0.352 | 0.191 | 0.0569 |  |
| Cc1c2c(nn1C)CSCc1cc(n(C)n1)CSc1cc(c3ccccc3c1)OCCCc1c(C(=O)O)n(C)c3c-2c(Cl)ccc13 [AZD5991] + Nc1ccn([C@@H]2O[C@H](CO)[C@@H](O)C2(F)F)c(=O)n1 [Gemcitabine] (first compound max 1 µM, 7x7, partner max 0.3 µM) | -0.0171 | -0.0212 | -0.0223 | 0.893 | 0.923 | 0.506 | 0.127 | 0.835 | 0.404 | 0.422 |  |
| C[C@@H](Nc1cc(F)cc(F)c1)c1cc(C(=O)N(C)C)cc2c(=O)cc(N3CCOCC3)oc12 [AZD8186] + CC(=O)c1c(C)c2cnc(Nc3ccc(N4CCNCC4)cn3)nc2n(C2CCCC2)c1=O [Palbociclib] (first compound max 10 µM, 7x7, partner max 10 µM) | 0.0428 | -0.0531 | -0.0006 | 0.479 | 0.62 | 0.479 | 0.11 | 0.623 | 0.478 | 0.55 |  |
| O=C(c1cc(Cc2n[nH]c(=O)c3ccccc23)ccc1F)N1CCN(C(=O)C2CC2)CC1 [Olaparib] + Cc1c2c(nn1C)CSCc1cc(n(C)n1)CSc1cc(c3ccccc3c1)OCCCc1c(C(=O)O)n(C)c3c-2c(Cl)ccc13 [AZD5991] (first compound max 10 µM, 7x7, partner max 1 µM) | -0.0367 | 0.0147 | -0.0344 | 0.446 | 0.498 | 0.15 | 0.231 | 0.311 | 0.127 | 0.122 |  |
